The subject of the test is regulatory and catalytic subunits of the cAMP dependent protein kinase A (PKA). Nature of the test: PKA regulatory/catalytic subunit interaction monitored in living cells via VSVG RII-β-PARC (bait) and mCherry-cat-α (prey), TIRFM. Particulars: mCherry-cat-α prey, within seconds upon addition. The format is cell-based. The text has this: FIG. 8 Monitoring protein reaction dynamics inside individual cells. A: Domain structures of bait-PARCs to measure PKA subunit interactions. B: A bait-PARC containing the regulatory domain RII-β of PKA was co-expressed with the cytosolic prey protein (mCherry-cat- ? to monitor their interaction dynamics inside living cells. Left: Recruitment of the prey to bait microstructures before and after pharmacological perturbation. Right: Derived prey recruitment kinetics (Iso: Isoproterenol; Prop: Propranolol; F/I: forskolin+IBMX; see Supplementary Methods for details). Scale bar: 5 μm. c: Two distinct regulatory domains on bait-PARCs were co-expressed together with the prey protein mCherry-cat- ? . Left: Image of a representative experiment depicting cells grown on a DNA-immobilized antibody array. The checkerboard pattern of antibodies is overlayed with magenta (anti-HA) or cyan (anti-VSVG) circles. Right: The recruitment of prey proteins to the two distinct bait proteins was monitored in individual microstructured spots via TIRFM during pharmacological perturbation (Iso: Isoproterenol; ATP: adenosine triphosphate; F/I: forskolin+IBMX). Scale bar: 10 μm.
Agonist induced activation of G-protein coupled receptors (GPCRs) leads to the dissociation of regulatory and catalytic subunits of the cAMP dependent protein kinase A (PKA) (Wong and Scott, 2004). […]

For the compound `CC(C)NCC(O)c1ccc(O)c(O)c1` (stereo not shown) [isoproterenol], the “interaction between bait and prey upon addition of agonist” value was “the interaction between bait and prey was lost”.

The values are drawn from patent US20150064713A1, “METHODS, KITS AND MEANS FOR DETERMINING INTRACELLULAR INTERACTIONS” (priority 2013, published 2015).
